# Results reported in paper PMC13538172, “Zonisamide nanodiamonds for brain targeting: A comprehensive study utilising in silico, in vitro, in vivo, and molecular investigation for successful nose-to-brain delivery for epilepsy management” (Drug Delivery and Translational Research, 2025).
# Experiments:
# [1] = system: experimentally induced TLE in rats; assay: EEG and behavioural seizures in pilocarpine-induced temporal lobe epilepsy (TLE); format: in vivo, adult male Wistar albino rats; conditions: intranasal 16 mg/kg/day of ZNS for 7 days
# Method: (§1) Temporal lobe epilepsy (TLE) was induced in rats using the pilocarpine model according to the method of Arshad et al.. Prior to the experiment, rats were housed in plastic cages at October University for Modern Science and Arts under controlled environmental conditions (temperatures of 25°±3°C and 50% humidity) with free access to water and softened standard pellet chow. The rats were injected with pilocarpine (300 mg/kg; i.p.) to induce status epilepticus (SE). Atropine (1 mg/kg; i.p.) was injected 30 minutes before pilocarpine injection to antagonize the peripheral muscarinic activity. SE was defined using the modified Racine scale by observing seizure severity categorized as stages 4 and 5. […] The SE seizures were left to last for 3 hours to induce hippocampus damage, after which diazepam (10 mg/kg; i.p.) was injected to attenuate the seizures. Lubricant ophthalmic gel was applied with a cotton swab to each eye to prevent the corneas from drying out during the seizures. The rats were hydrated with sterile Ringer's lactate injections (1 mL, i.p.) for 3 days post-SE induction. Animal welfare assessments were conducted multiple times per day for several days after the induction of SE. The Pilocarpine-inducted rats began to develop spontaneous recurrent seizures (SRS) as a characteristic of TLE within 3 weeks, after which the treatments were injected for 7 days, and the in vivo pharmacodynamic investigation was conducted. […]
# At the end of the experiment, SRS was monitored using a video recorder (6 hours/day) and scored according to the Racine scale. In addition, the brain activity was recorded using an electroencephalogram (EEG, powerlab module, which consists of Power-lab/8sp and Animal Bio-Amplifier, Australia). […]
# [2] = system: neuron-specific enolase (NSE); assay: Serum NSE by ELISA in TLE rats; format: in vivo; conditions: compared to the TLE control rats; intranasal, 7 days
# Method: as §1, with “induction.” for “induction. Animal welfare assessments were conducted multiple times per day for several days after the induction of SE. The Pilocarpine-inducted rats began to develop spontaneous recurrent seizures (SRS) as a characteristic of TLE within 3 weeks, after which the treatments were injected for 7 days, and the in vivo pharmacodynamic investigation was conducted.”
# (§2) The serum levels of neuron-specific enolase (NSE), matrix metallopeptidase-9 (MMP-9), neurofilament light polypeptide (NEFL), and brain-derived neurotrophic factor (BDNF) were measured by ELISA technique using the following standard kits CAT no. […]
# [3] = system: matrix metallopeptidase-9 (MMP-9); assay: Serum MMP-9 by ELISA in TLE rats; format: in vivo; conditions: compared to the TLE control rats; intranasal, 7 days
# Method: as §1, with “induction.” for “induction. Animal welfare assessments were conducted multiple times per day for several days after the induction of SE. The Pilocarpine-inducted rats began to develop spontaneous recurrent seizures (SRS) as a characteristic of TLE within 3 weeks, after which the treatments were injected for 7 days, and the in vivo pharmacodynamic investigation was conducted.”
# as §2
# Sirtuin 1 (Sirt-1) = assay: Hippocampal SIRT-1 expression by quantitative RT-PCR in TLE rats; format: in vivo; conditions: relative quantitation 2-∆∆Ct; TLE control 0.16 fold of normal
# Method: (§3) Temporal lobe epilepsy (TLE) was induced in rats using the pilocarpine model according to the method of […] et al.. Prior to the experiment, rats were housed in plastic cages at October University for Modern Science and Arts under controlled environmental conditions (temperatures of 25°±3°C and 50% humidity) with free access to water and softened standard pellet chow. The rats were injected with pilocarpine (300 mg/kg; i.p.) to induce status epilepticus (SE). Atropine (1 mg/kg; i.p.) was injected 30 minutes before pilocarpine injection to antagonize the peripheral muscarinic activity. SE was defined using the modified Racine scale by observing seizure severity categorized as stages 4 and 5. […] For quantitative RT-PCR analysis of miR-199, Sirtuin 1 (Sirt-1) and long non-coding RNA of plasmacytoma variant translocation1 (LncRNA PVT-1), RNA was isolated from the brain hippocampus tissue with direct-zol RNA Miniprep Plus (CAT no. R2072) and reverse-transcribed into cDNA with the reverse transcriptase (CAT no. 12594100) according to the manufacturer instructions. […] Quantitative reverse transcriptase PCR was performed using a Power SYBR Green PCR Master Mix (CFX96 Instrument; Bio-Rad, USA). The relative quantitation (RQ) of each target gene is quantified according to the 2-ΔΔCt method calculation.
# LncRNA PVT-1 = assay: Hippocampal LncRNA PVT-1 expression by quantitative RT-PCR in TLE rats; format: in vivo; conditions: relative quantitation 2-∆∆Ct; TLE control 5.7 folds of normal rats
# Method: as §3
smiles,measurement,setting,value
"NS(=O)(=O)Cc1noc2ccccc12 [ZNS, Zonisamide]",maximum spike amplitude during the SRS,[1]; n = 8,0.4 ± 0.1 mV
same,mean duration of single SRS (epileptogenic ictal discharge in EEG),[1]; n = 8,96.5 ± 2.9 s
same,incidence of motor seizures per 6 h,[1]; video recording 6 hours per day,3.5 ± 0.5
same,decrease in serum level of NSE,[2],30.6%
same,decrease in serum level of MMP-9,[3],40.1%
same,hippocampal SIRT-1 level,Sirtuin 1 (Sirt-1),0.47 folds
same,hippocampal level of LncRNA-PVT1,LncRNA PVT-1,3.4 folds
